The results in this text go back to patent US20250296971A1, “GASTRIC INHIBITORY PEPTIDE RECEPTOR LIGANDS” (priority 2021, published 2025).

*1 amine or outer side, *2 acyl side, *3 side chain or, on linkers, in order; H or OH if unused. Where a SMILES comes first, the peptide text is derived from it. Bridges are numbered along the chain shown (N, C = ends). [ ]: non-standard residue; d: D form. The star is where a group is joined. NH(1-deoxy-D-glucityl) = OC[C@@H](O)[C@@H](O)[C@H](O)[C@@H](O)CN*; DOTA = O=C(O)CN1CCN(CC(=O)O)CCN(CC(=O)*)CCN(CC(=O)O)CC1; Trp(5-Cl) = N[C@@H](Cc1c[nH]c2ccc(Cl)cc12)C(=O)O; Pyridine(2,6-diCH2) = c1cc(C[*:1])nc(C[*:2])c1; Pro(4R-NH2) = N[C@H]1CN[C@H](C(=O)O)C1; Glutaryl = O=C(CCCC(=O)[*:2])[*:1]; X1 = O=C(CN1CCC(N[*:1])CC1)[*:2]; Api = NC1(C(=O)O)CCNCC1

The target in data set [1] is T1, GIPR (CHO-K1-hGIPR cells) (Homo sapiens, UniProt P48546).
T1 construct: host or cells: CHO-K1
T1 sequence (P48546 22-466): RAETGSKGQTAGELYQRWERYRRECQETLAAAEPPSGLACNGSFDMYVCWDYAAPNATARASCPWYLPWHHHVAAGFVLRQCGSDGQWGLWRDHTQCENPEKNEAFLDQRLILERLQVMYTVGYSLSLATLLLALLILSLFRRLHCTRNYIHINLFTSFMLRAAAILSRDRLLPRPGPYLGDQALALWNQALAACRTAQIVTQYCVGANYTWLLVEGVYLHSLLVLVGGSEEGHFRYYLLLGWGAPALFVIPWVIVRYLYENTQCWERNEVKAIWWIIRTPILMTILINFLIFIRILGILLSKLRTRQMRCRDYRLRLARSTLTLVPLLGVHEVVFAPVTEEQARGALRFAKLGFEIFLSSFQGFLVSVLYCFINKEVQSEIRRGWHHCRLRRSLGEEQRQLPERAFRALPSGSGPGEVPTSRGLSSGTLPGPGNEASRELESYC
Kind of data set: FACS binding assay. As to conditions: competition with 20 nM GIP-057, 4° C., 1 hour, read-out: pIC50 Category (converted). The method in brief: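 Steps: detach CHO-K1-hGIPR cells (Accutase); wash in PBS/1% FCS; adjust to 500.000 cells per mL; wash ice-cold; incubate APC-streptavidin 1 μg/mL, 30 min on ice; wash twice; acquire on flow cytometer; fit MFI-concentration data with a four-parameter logistic model.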
On the technique in general: In flow cytometry, cells or beads pass a laser one at a time.

A further data set has as its target T2, Rat GIPR (Rattus norvegicus, UniProt P43219).
T2 construct: host or cells: CHO-VGT
T2 sequence (P43219 19-455): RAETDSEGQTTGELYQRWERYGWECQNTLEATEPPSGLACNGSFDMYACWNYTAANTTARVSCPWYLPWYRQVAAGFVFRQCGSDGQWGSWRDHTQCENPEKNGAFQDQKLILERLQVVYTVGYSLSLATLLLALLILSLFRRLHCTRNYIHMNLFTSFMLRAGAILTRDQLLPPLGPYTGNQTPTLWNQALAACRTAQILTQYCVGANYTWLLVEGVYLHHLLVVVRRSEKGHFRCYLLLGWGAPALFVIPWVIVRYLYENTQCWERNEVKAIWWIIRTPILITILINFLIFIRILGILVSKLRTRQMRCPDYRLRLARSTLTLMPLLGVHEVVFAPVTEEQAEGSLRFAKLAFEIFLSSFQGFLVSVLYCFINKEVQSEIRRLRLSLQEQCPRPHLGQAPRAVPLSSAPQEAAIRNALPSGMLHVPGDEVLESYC
Nature of the data set: Radioligand binding assay, rat GIPR. The conditions noted are these: 111In-labeled compound, 6 h, 37° C., read-out: pKD Category (converted). On the procedure: In order to assess the affinity of ^111In-labeled compounds to the GIPR receptor of different species, a radioligand binding assay was established.
CHO-K1 cells (GenScript Biotech, #M00486) were stably transfected with the human GIPR. CHO-K1-hGIPR cells were cultured in Ham's F12 medium (Sigma-Aldrich, #N4888) including 10% fetal calf serum (FCS), 2 mM L-glutamine, 100 U/mL penicillin, 100 µg/mL streptomycin, 200 µg/mL Zeocin and 100 µg/mL HygromycinB. To evaluate the species cross-reactivity, CHO-VGT cells were transfected with the human, dog, rat and mouse GIPR (Inscreenex GmbH), which were cultured in DMEM/Ham's F12 Medium 1:1 (Biochrom, #F485) including 5% fetal calf serum (FCS), 2 mM L-glutamine, 100 U/mL penicillin and 100 μg/mL streptomycin. Cells were detached with Accutase (Biolegend, #BLD-423201) and counted using a particle counter (CASY Model TT; Schärfe Systems). Cell concentrations were adjusted to 3×10^5 mL^−1, and 1.000 μL of the suspension per well were dispensed into flat-clear-bottom 24 well plates.
Approximately 24 hours after re-seeding, the medium was aspirated and the cells were washed once with 700 μL assay medium (Ham's medium with 20 mM HEPES). […]
At the end of incubation time, cells were washed and subsequently harvested in 300 μL RIPA buffer containing PIC. Radioactivity of the cell lysate of each well was counted using a gamma counter (Perkin Elmer). […]

In data set [2] the target is Recombinant soluble human NEP (Homo sapiens, UniProt P08473). Nature of the data set: Proteolytic stability assay against NEP. As to conditions: NEP 100 ng/mL, compound 10 μM, 37° C., % intact compound remaining.
Recombinant soluble human NEP, sequence (P08473 52-750 limits assumed): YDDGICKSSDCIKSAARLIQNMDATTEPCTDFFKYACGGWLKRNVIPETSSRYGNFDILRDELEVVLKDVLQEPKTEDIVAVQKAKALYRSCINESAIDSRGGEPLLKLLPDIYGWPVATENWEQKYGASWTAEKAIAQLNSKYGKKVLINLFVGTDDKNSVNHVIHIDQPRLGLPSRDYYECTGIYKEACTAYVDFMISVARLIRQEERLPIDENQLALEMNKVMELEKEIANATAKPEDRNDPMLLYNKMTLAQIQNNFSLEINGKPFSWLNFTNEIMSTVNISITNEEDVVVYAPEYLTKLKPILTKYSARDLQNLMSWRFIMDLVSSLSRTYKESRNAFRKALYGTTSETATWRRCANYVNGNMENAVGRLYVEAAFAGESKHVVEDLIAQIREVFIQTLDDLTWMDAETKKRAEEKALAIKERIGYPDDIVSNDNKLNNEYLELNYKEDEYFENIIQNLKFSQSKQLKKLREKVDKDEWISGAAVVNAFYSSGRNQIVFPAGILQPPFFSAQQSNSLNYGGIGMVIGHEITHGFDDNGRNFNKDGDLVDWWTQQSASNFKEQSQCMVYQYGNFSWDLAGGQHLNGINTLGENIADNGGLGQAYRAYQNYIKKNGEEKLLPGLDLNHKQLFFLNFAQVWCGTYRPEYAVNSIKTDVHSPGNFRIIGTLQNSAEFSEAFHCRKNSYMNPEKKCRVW

In the case of `CC[C@H](C)[C@@H]1NC(=O)[C@H](CC(C)C)NC(=O)C2(CCN(C(=O)CN3CCN(CC(=O)O)CCN(CC(=O)O)CCN(CC(=O)O)CC3)CC2)NC(=O)[C@@H](NC(=O)[C@@H](CC(C)C)NC(=O)[C@H](CCC(=O)O)NC(=O)[C@@H]2C[C@@H](N)CN2C(=O)[C@H](Cc2c[nH]c3ccc(Cl)cc23)NC(=O)[C@H](Cc2c[nH]c3ccccc23)NC(=O)[C@H](CC(=O)O)NC(=O)CCCC(=O)NC[C@H](O)[C@@H](O)[C@H](O)[C@H](O)CO)CSCc2cccc(n2)CSC[C@@H](C(=O)NC2CCN(CC(=O)N[C@H](CCC(=O)NC[C@H](O)[C@@H](O)[C@H](O)[C@H](O)CO)C(N)=O)CC2)NC1=O` [GIP-001, AGLU-Glutar-Asp-Trp-5Clw-Tap-Glu-leu-[Cys(2Lut)-Apc(DOTA)-Leu-Ile-Cys]-APAc-glu(AGLU)-NH2] ({NH(1-deoxy-D-glucityl)-Glutaryl}-DW[Trp(5-Cl)][Pro(4R-NH2)]E[dL]C[Api](DOTA)LIC[X1][dE](NH(1-deoxy-D-glucityl))-NH2; linker 7-11 via Pyridine(2,6-diCH2)), the IC50 in data set [1] was less than 10 nM. Moreover, on Rat GIPR, the Kd was 0.316 to 1 nM. The NEP stability category entry in data set [2] is recorded as “A (>80% intact after 24 hours)”.
